Where two headings read alike, the source gives them in different places.

The target of assay [1] is T1, human EphB2-His ectodomain - human EphrinB2-Fc ectodomain (EphB2-EphrinB2 tetramer) (Homo sapiens, UniProt P29323+P52799). In words: biochemical.
Target sequence in this assay (P52799 28-229): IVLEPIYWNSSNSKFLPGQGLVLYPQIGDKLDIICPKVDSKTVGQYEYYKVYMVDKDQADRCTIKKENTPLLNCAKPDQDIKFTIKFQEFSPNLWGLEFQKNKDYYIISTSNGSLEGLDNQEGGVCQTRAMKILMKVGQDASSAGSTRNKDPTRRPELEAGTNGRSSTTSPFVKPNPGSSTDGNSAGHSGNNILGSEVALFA
Target sequence in this assay (P29323 19-543): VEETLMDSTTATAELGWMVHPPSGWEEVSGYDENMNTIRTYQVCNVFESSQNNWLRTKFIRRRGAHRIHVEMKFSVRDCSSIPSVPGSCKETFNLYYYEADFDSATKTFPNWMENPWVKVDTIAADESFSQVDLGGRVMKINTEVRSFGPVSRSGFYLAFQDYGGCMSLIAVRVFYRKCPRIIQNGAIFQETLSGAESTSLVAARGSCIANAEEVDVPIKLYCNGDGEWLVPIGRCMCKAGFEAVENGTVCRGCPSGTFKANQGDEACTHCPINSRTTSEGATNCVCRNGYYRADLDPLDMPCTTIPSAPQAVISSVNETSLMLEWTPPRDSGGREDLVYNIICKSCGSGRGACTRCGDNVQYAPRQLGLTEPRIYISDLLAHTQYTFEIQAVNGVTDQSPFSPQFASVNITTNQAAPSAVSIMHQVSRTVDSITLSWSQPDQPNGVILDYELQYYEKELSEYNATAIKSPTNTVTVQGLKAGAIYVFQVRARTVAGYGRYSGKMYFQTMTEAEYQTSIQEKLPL
For assay [2], the target named is T1, human EphB2-His ectodomain - human EphrinB2-Fc ectodomain (EphB2-EphrinB2 tetramer). In words: biochemical. The conditions noted are these: EphrinB2-EphB2 IC50 (Absolute, µM).
Target sequence in this assay (P52799 28-229): as the sequence (P52799 28-229) above
Target sequence in this assay (P29323 19-543): as the sequence (P29323 19-543) above
Assay [3] shares this target. In words: biolayer interferometry, AUC. The assay is classed as binding. The conditions noted are these: read-out: % inhibition at 3.2 μM. A general note: BLI is a label-free optical method that tracks binding on a fibre tip over time.
Target sequence in this assay (P29323 19-543): as above
Target sequence in this assay (P52799 28-229): as the sequence (P52799 28-229) above
Assay [4] concerns the target human EphB4-His ectodomain - human EphrinB2-Fc ectodomain (EphB4-EphrinB2) (Homo sapiens, UniProt P52799+P54760). In words: biolayer interferometry, AUC. The assay is classed as binding. The settings on record: read-out: % inhibition at 3.2 μM.
Assay [5] concerns the target EphrinB2-EphB1 (immobilized human EphrinB2, 25 nM soluble human EphB1) (Homo sapiens, UniProt P52799+P54762). Description: biochemical. The settings on record: read-out: % Inhibited (AUC) Association.
In the next assay the target is EphB1-EphrinB2 (Homo sapiens, UniProt P52799+P54762). Description: biolayer interferometry, AUC. The settings on record: read-out: % inhibition at 3.2 μM. The format is binding.
The target in assay [6] is EphrinB2 of mouse pancreatic stellate cells stimulated with mouse EphB2-Fc-His (Mus musculus, UniProt P52800+P54763). In words: % pEphrinB2 by IP and immunoblot. The format is cell-based. (In general: Immunoblotting shows a protein as a band on a membrane.)
Assay [7] deals with T1, human EphB2-His ectodomain - human EphrinB2-Fc ectodomain (EphB2-EphrinB2 tetramer). In words: biochemical. The source holds these as a separate data set.
Target sequence in this assay (P29323 19-543): as the sequence (P29323 19-543) above
Target sequence in this assay (P52799 28-229): as the sequence (P52799 28-229) above
Assay [8] shares this target. Description: biolayer interferometry, AUC of concentration series. The assay is classed as binding.
Target sequence in this assay (P29323 19-543): as the sequence (P29323 19-543) above
Target sequence in this assay (P52799 28-229): as the sequence (P52799 28-229) above
Assay [9] shares this target. Description: biochemical. The source holds these as a separate data set.
Target sequence in this assay (P52799 28-229): as above
Target sequence in this assay (P29323 19-543): as the sequence (P29323 19-543) above
Assay [10] shares this target. In words: biochemical. This is another data set of the same source.
Target sequence in this assay (P52799 28-229): as the sequence (P52799 28-229) above
Target sequence in this assay (P29323 19-543): as the sequence (P29323 19-543) above
For assay [11] the target is unchanged. In words: biochemical. The source holds these as a separate data set.
Target sequence in this assay (P52799 28-229): as the sequence (P52799 28-229) above
Target sequence in this assay (P29323 19-543): as the sequence (P29323 19-543) above
The target is the same in assay [12]. Description: biochemical. This is another data set of the same source.
Target sequence in this assay (P52799 28-229): as the sequence (P52799 28-229) above
Target sequence in this assay (P29323 19-543): as the sequence (P29323 19-543) above

EphrinB2-EphB1 (immobilized human EphrinB2, 25 nM soluble human EphB1), sequence (P52799 whole entry): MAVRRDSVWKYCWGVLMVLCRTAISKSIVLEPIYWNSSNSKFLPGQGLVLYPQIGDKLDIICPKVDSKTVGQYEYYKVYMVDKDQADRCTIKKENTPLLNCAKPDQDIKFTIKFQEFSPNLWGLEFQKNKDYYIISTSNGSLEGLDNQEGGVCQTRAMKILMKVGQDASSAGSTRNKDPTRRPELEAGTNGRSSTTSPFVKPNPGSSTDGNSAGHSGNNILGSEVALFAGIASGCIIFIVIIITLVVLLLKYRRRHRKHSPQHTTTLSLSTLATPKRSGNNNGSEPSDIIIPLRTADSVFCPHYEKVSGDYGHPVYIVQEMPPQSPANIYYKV
EphrinB2-EphB1 (immobilized human EphrinB2, 25 nM soluble human EphB1), sequence (P54762 whole entry): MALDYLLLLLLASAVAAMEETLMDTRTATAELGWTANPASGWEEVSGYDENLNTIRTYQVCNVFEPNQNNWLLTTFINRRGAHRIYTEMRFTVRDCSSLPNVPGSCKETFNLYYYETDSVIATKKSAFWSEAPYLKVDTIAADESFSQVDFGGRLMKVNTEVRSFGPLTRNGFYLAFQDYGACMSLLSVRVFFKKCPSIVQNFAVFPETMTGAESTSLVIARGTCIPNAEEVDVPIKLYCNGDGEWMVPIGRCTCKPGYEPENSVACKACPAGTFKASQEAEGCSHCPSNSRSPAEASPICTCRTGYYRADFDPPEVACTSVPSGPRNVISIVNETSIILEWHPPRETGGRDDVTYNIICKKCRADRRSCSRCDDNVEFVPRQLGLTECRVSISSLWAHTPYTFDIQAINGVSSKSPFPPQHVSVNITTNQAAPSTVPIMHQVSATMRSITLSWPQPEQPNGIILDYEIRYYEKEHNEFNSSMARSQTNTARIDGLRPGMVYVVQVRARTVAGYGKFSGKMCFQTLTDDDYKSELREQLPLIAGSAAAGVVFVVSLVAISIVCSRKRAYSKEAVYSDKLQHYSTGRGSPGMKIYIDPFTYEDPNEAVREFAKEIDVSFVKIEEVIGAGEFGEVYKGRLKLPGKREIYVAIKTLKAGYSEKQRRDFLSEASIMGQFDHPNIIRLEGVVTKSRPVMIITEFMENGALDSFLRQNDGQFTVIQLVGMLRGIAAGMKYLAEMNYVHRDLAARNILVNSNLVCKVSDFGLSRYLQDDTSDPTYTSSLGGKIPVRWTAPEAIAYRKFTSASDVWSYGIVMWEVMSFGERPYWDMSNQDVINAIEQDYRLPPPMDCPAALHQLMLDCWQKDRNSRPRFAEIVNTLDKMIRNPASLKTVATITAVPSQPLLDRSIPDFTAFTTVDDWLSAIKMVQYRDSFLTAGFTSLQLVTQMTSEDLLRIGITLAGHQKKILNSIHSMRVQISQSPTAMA
EphrinB2 of mouse pancreatic stellate cells stimulated with mouse EphB2-Fc-His, sequence (P52800 29-336): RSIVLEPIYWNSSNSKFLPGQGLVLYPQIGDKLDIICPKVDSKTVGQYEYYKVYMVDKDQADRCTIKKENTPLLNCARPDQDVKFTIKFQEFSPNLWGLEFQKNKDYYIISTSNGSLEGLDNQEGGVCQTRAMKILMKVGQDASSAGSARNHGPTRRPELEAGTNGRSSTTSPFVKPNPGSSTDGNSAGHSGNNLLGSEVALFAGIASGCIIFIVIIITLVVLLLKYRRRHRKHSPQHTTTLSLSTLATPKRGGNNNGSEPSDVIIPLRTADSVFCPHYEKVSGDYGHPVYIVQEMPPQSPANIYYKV
EphrinB2 of mouse pancreatic stellate cells stimulated with mouse EphB2-Fc-His, sequence (P54763 19-540): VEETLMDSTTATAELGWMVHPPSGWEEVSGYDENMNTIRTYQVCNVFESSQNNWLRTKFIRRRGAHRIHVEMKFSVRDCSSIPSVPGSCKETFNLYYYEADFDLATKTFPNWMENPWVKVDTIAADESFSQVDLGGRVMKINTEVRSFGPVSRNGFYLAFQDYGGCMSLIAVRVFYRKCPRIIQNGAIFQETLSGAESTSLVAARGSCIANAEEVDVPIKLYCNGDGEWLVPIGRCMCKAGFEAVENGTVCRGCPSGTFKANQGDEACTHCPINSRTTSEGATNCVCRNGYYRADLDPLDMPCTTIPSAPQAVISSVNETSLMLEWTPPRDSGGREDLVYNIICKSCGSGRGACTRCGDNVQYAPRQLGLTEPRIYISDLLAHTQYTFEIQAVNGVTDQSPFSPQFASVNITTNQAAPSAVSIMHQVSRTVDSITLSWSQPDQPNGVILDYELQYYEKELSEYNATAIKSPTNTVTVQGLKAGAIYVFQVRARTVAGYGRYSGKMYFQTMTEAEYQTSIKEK
human EphB4-His ectodomain - human EphrinB2-Fc ectodomain (EphB4-EphrinB2), sequence (P54760 16-539): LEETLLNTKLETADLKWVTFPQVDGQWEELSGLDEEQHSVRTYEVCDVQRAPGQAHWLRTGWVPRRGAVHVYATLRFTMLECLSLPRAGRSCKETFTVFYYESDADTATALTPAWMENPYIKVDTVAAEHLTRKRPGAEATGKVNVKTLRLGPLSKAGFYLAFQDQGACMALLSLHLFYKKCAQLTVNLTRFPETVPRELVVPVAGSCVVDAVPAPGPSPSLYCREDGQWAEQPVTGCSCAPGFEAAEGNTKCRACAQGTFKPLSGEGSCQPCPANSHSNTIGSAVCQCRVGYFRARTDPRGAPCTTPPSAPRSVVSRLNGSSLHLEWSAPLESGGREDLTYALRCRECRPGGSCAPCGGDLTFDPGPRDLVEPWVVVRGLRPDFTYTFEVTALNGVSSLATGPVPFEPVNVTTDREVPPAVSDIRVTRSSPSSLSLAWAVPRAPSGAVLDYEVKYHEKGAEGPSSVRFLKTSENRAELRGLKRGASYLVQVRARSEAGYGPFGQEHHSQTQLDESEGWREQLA
human EphB4-His ectodomain - human EphrinB2-Fc ectodomain (EphB4-EphrinB2), sequence (P52799 28-229): as the sequence (P52799 28-229) above

As for `Oc1ccc(CSc2ccccc2)c2cccnc12` [SW160569, G15], the inhibition constant Ki (commonly the equilibrium dissociation constant of an inhibitor or competing ligand from its target) in assay [1] was 0.00373 µM.
`Oc1c(I)cc(CN2CCOCC2)c2cccnc12` [A20-I]: in [2], the IC50 – broadly, the concentration that gives 50% inhibition – is > 1.6 µM. Further, the inhibition at 3.2 µM in assay [3] turned out to be 61.8%; in assay [4] it was 13.9%; in [5] it was 32.6%; at EphB1-EphrinB2, 36.6%.
Turning to `Oc1c(Br)cc(CN2CCN(c3ccc(Br)cc3)CC2)c2cccnc12` [BQPB4], the values for the IC50 in assay [6] and in assay [7] were 1.6 µM and 0.28 µM, respectively. Besides, the Ki in assay [8] came out at 0.00288 µM. For the same compound, the inhibition at 3.2 µM in assay [5] was 39.1%.
For the compound `CCOc1cc(C(Nc2cc(C)ccn2)c2ccc3cccnc3c2O)ccc1O` (centres unmarked) [SW039498], the IC50 in [9] and in assay [10] was > 3.2 µM throughout.
Take `O=C(Oc1c(Cl)cc(Cl)c2cccnc12)c1ccc([N+](=O)[O-])cc1` [4a, 5,7-dichloro-8-quinolinyl 4-nitrobenzoate]: the IC50 in assay [11] is 38 µM; in assay [12] it was ~31.6 µM.
